Experimental data: PMC7235712, “Biological Activities of Essential Oils from Leaves of Paramignya trimera (Oliv.) Guillaum and Limnocitrus littoralis (Miq.) Swingle” (Antibiotics, 2020)
Values after ≈ are worked out from the molar mass of the structure shown.

How the values were obtained:
[1] = in vitro; conditions: human
[2] = tested on: HIV-1IIIB; test: microbe, parasite or virus in culture; type: cell-based, human immunodeficiency virus type-1; conditions: Human immunodeficiency virus 1, MT4, read-out: EC50 HIV-1IIIB
[3] = in vitro; conditions: Syrian hamster (Mesocricetus auratus)
[4] = in vitro; conditions: cattle (Bos taurus)
[5] = tested on: BVDV; test: microbe, parasite or virus in culture; type: cell-based, bovine viral diarrhoea virus; conditions: Bovine viral diarrhea virus isolates and strains, MDBK, in Bos taurus, read-out: EC50 BVDV
[6] = tested on: YFV; test: microbe, parasite or virus in culture; type: cell-based; conditions: Yellow fever virus, BHK, read-out: EC50 YFV
[7] = tested on: Sb-1; test: microbe, parasite or virus in culture; type: cell-based, human enterovirus C (polio virus type-1); conditions: Enterovirus C, Vero 76, read-out: EC50 Sb-1
[8] = in vitro; conditions: African green monkey (Cercopithecus aethiops)
[9] = tested on: CV-B4; test: Plaque reduction in Vero-76 monolayers, CV-B4; type: cell-based, human enterovirus B (coxsackie virus B4); conditions: Enterovirus B, CVB4, reference compound
[10] = tested on: RSV; test: Plaque reduction in Vero-76 monolayers, RSV; type: cell-based; conditions: human respiratory syncytial virus, reference compound
[11] = tested on: HSV-1; test: Plaque reduction in Vero-76 monolayers, HSV-1; type: cell-based, human herpes virus 1; conditions: Human alphaherpesvirus 1, reference compound
[12] = tested on: Reo-1; test: microbe, parasite or virus in culture; type: cell-based, reovirus type-1; conditions: Reovirus sp., BHK, read-out: EC50 Reo-1
[13] = tested on: S. aureus; conditions: β-caryophyllene from Aquilaria crassna essential oil; cited from earlier work

With `O=C1Nc2ccc(Cl)cc2[C@@](C#CC2CC2)(C(F)(F)F)O1` [RC1, Efavirenz] the CC50 [1] was 40000 nM and the EC50 [2] was 3 ± 0.3 nM.
For `C[C@@]1(O)[C@H](O)[C@@H](CO)O[C@H]1n1cnc2c(=O)[nH]c(N)nc21` [RC2, 2′-C-methylguanosine], the CC50 [3] was 80000 nM, the CC50 [4] was over 100000 nM and the EC50 [5] was 1700 ± 300 nM. It also gave an EC50 [6] of 1400 ± 200 nM.
`Cc1cc(CCCOc2c(C)cc(-c3noc(C(F)(F)F)n3)cc2C)on1` [RC3, Pleconaril] showed an EC50 [7] of 2000 nM, a CC50 [8] of over 100000 nM and an EC50 [9] of 2000 ± 500 nM.
`O=c1cnn([C@@H]2O[C@H](CO)[C@@H](O)[C@H]2O)c(=O)[nH]1` [RC4, 6-aza-uridine] showed an EC50 [10] of 2000 ± 200 nM and a CC50 [8] of at least 14000 nM.
With `Nc1nc2c(ncn2COCCO)c(=O)[nH]1` [RC5, Acycloguanosine] the CC50 [8] was over 100000 nM and the EC50 [11] was 3000 ± 100 nM.
`COc1c(C)c2c(c(O)c1C/C=C(\C)CCC(=O)O)C(=O)OC2` [RC6, Mycophenolic acid] showed a CC50 [8] of over 100000 nM.
`C[C@@]1(O)[C@H](O)[C@@H](CO)O[C@H]1n1ccc(N)nc1=O` [RC7, 2′-C-methylcytidine] gave a CC50 [3] of over 100000 nM and an EC50 [12] of 17000 nM.
In the case of `C=C1CC/C=C(\C)CC[C@@H]2[C@@H]1CC2(C)C` [β-caryophyllene], the MIC [13] is given as 3 ± 0.4 µM (≈ 0.613 µg/mL).
